Active and inactive are the calls of the source.
What was measured:
[1] = Trypanosoma cruzi growth suppression in host cells – NIH3T3 host cells, beta-gal luminescence, confirmation (AID 2044); assay type: functional, cell-based;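 note: intracellular parasites grown in NIH/3T3 mouse fibroblasts as host cells; luminescent beta-galactosidase reporter signal from transgenic T. cruzi replicating inside host cells; inhibitors lower the luminescence signal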
[2] = NIH3T3 cell viability loss – ATP luminescence, mouse fibroblasts, counter-screen, dose response (AID 2010); assay type: functional, cell-based;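 note: cells exposed to compound for about 90 hours before reading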
Cytochrome P450 3A4 = Cytochrome P450 3A4 (Homo sapiens, UniProt P08684);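 note: CYP3A4 tested as one member of a cytochrome P450 panel screen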
Chain of Cytochrome P450 3A4 (P08684 whole entry): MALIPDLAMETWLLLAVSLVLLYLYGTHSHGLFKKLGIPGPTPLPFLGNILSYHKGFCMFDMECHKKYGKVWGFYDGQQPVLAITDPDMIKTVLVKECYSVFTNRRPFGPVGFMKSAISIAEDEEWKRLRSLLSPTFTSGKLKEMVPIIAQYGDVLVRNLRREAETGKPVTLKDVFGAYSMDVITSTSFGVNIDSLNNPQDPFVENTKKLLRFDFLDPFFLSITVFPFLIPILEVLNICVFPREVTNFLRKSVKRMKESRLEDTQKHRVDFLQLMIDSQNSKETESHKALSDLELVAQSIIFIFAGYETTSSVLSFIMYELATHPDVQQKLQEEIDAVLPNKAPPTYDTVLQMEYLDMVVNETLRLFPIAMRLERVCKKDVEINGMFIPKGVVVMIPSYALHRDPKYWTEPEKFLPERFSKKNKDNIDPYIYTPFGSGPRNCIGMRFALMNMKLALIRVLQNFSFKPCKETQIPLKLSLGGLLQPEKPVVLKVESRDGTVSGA

[3] = luciferase reporter signal suppression in cells – H4 neuroglioma cells, luminescence, dose response (AID 1990); assay type: functional, cell-based
[4] = Luminescence Cell-Based Dose Response HTS to Identify Inhibitors of 5'UTR Stem-Loop Driven Prion Protein mRNA Translation in H4 Neuroglioblastoma Cells. [Related pubchem assays: 1827 (Project Summary), 1813 (Primary HTS)]; assay type: functional
[5] = alpha-synuclein stem-loop luciferase translation blockers – H4 neuroglioma cells, luminescence, confirmation (AID 1988); assay type: functional, cell-based
[6] = system: Streptococcus sp. 'group A'; assay: Streptococcus pyogenes SK(-)GAS viability under kanamycin – luminescence, BacTiterGlo, confirmation, counter-screen for streptokinase expression inhibitor project, dose response (AID 1900); assay type: functional, organism-based; settings: read-out: EC50
Streptococcus = assay: GAS UMAA2166 growth inhibition – luminescence, BacTiterGlo, counter-screen for streptokinase expression inhibitor project, dose response (AID 1915); assay type: functional, organism-based;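 note: potency for reduction of bacterial viability or growth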
[7] = Luminescence Cell-Based Dose Retest to Confirm Inhibitors of Cancer Stem Cells. [Related pubchem assays (depositor defined):AID2717, AID2721]; assay type: functional, Homo sapiens; settings: Homo sapiens
Cytochrome P450 2C19 = Cytochrome P450 2C19 (Homo sapiens, UniProt P33261); assay: Cytochrome panel assay with activity outcomes. Panel member name: p450-cyp2c19 Compounds with AC50 equal or less than 10 uM are considered active; assay type: functional
Chain of Cytochrome P450 2C19 (P33261 whole entry): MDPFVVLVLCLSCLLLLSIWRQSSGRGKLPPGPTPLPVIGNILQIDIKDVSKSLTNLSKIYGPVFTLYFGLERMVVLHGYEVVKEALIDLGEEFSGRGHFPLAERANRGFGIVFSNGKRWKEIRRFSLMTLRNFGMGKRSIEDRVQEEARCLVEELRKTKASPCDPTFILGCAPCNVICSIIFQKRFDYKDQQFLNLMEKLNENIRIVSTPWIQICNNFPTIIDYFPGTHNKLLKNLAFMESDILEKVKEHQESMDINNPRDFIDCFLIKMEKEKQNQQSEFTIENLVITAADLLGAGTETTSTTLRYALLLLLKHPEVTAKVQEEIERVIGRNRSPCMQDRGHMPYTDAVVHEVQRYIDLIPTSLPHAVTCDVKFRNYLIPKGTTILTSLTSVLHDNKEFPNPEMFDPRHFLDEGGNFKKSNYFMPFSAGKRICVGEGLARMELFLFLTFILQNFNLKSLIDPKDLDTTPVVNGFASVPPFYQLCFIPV

[8] = target: T1, Rac GTPase-activating protein 1 (Homo sapiens, UniProt Q9H0H5); assay: blockers of MgcRacGAP-driven Rac1 GTP hydrolysis – biochemical, ADP Hunter fluorescence, primary and confirmatory, confirmation (AID 624330); assay type: functional
T1 sequence (Q9H0H5 whole entry): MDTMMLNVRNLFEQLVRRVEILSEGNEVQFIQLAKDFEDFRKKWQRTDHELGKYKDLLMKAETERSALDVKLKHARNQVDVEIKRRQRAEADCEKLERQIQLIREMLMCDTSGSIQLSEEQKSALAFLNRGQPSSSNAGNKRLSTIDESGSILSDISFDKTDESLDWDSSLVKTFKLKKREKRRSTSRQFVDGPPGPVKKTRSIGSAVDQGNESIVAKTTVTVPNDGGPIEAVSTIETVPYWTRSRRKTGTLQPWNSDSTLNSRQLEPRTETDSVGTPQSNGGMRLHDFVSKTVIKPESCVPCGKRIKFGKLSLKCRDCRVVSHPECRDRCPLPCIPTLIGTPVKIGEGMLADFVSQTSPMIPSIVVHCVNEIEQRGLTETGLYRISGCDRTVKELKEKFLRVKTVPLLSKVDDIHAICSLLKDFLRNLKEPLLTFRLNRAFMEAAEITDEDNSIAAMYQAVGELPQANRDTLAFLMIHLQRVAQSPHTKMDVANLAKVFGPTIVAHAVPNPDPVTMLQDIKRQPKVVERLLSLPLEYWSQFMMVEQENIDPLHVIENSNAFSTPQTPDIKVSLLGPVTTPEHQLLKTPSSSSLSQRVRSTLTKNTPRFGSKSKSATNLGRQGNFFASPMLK

CN(C)c1ccc(C2CNC(c3ccc(Cl)c([N+](=O)[O-])c3)c3[nH]c4ccccc4c32)cc1 (stereo not drawn)
EC50 [1]: 1.88 µM (active) | EC50 [2]: > 60 µM (not active)

CCC(C)NS(=O)(=O)c1ccc(S(=O)(=O)N(CCc2ccc(OC)c(OC)c2)Cc2cccs2)cc1 (stereo not drawn)
EC50 [1]: 1.72 µM (active) | EC50 [2]: > 60 µM (not active)

COCCNc1nc(-c2ccccc2CN(C)C)nc2ccccc12
AC50 (Cytochrome P450 3A4): 15.8 µM (inconclusive)

CCN(CC)c1nc(Nc2ccc(Cl)cc2)nc(OCC#N)n1
EC50 [3]: 15 µM (active) | EC50 [4]: 14.6 µM (active) | EC50 [5]: 16 µM (active)

CCOC(=O)Nc1ccc(OCc2nnc3c4ccccc4c(C)nn23)cc1
EC50 [6]: < 0.06 µM (active) | EC50 (Streptococcus): 0.676 µM (active)

CC1(C)Cc2c(sc3c2c(=N)n(Cc2ccco2)c(=O)n3Cc2ccc(Cl)cc2)CO1
EC50 [3]: 14.2 µM (active) | EC50 [4]: > 120 µM (not active) | EC50 [5]: 13.8 µM (active)

Cc1ccc(C)c(NC(S)=NN=C(S)Nc2ccc(C(C)C)cc2)c1
EC50 [1]: 2.69 µM (active) | EC50 [2]: > 60 µM (not active)

O=C(NCc1ccco1)c1cc(-c2ccc3c(c2)OCO3)on1
AC50 [7]: 1.14 µM (active)

N#CCSc1nc2c(c(=O)n1Cc1ccco1)C1(CCCC1)Cc1ccccc1-2
AC50 [7]: 0.686 µM (active)

COC(=O)Nc1nc2cc(SC(C)C)ccc2[nH]1
AC50 (Cytochrome P450 2C19; read-out: AC50): 10 µM (inconclusive)

O=c1c(-c2cccc(F)c2)nc2cncnc2n1Cc1ccccc1
AC50 (Cytochrome P450 3A4): 10 µM (inconclusive)

CC(C)CN1CC[C@@]2(CCCN(C(=O)c3ccco3)C2)C1
AC50 (Cytochrome P450 3A4): 12.6 µM (inconclusive)

COc1ccc(Oc2ncc3nc(-c4ccc(Cl)cc4)c(=O)n(C)c3n2)cc1
AC50 (Cytochrome P450 3A4): 5.01 µM (inconclusive)

O=C1NC[C@@H](Cc2cccc3ccccc23)N(CC2(c3ccccc3)CC2)C1=O
EC50 [3]: > 120 µM (not active) | EC50 [4]: > 120 µM (not active) | EC50 [5]: > 120 µM (not active)

Cn1c(=O)c2c(nc(NCCNc3nc4c(c(=O)n(C)c(=O)n4C)n3C)n2C)n(C)c1=O
AC50 (Cytochrome P450 2C19): inconclusive

Cc1nn(S(=O)(=O)c2ccc([N+](=O)[O-])cc2)c(C)c1Sc1ccccc1
EC50 [1]: 1.16 µM (active) | EC50 [2]: > 60 µM (not active)

Cc1ccc2nc(O)c(C(c3nnnn3C(C)(C)C)N(Cc3ccco3)CC3CCCO3)cc2c1 (stereo not drawn)
EC50 [1]: 3.14 µM (active) | EC50 [2]: > 60 µM (not active)

NC(=O)CC(NC(=O)Cc1cccc2ccccc12)c1ccc(NCc2ccc(F)cc2)c([N+](=O)[O-])c1 (stereo not drawn)
AC50 [7]: 5.46 µM (active)

COCCn1c(=O)c(-c2cccc(Cl)c2)nc2cncnc21
AC50 (Cytochrome P450 3A4): 15.8 µM (inconclusive)

N#CCCn1c(=O)c(CCc2ccccc2)nc2cnc(Nc3ccccc3)nc21
AC50 (Cytochrome P450 3A4): 1 µM (inconclusive)

Cc1c(-c2nc(N)nc(Nc3ccc(F)cc3)n2)oc2ccccc12
EC50 [1]: 2.76 µM (active) | EC50 [2]: 13.4 µM (active)

COc1ccc(C(=O)N2CCN(C3CCN(Cc4ccccc4)CC3)CC2)cc1OC
IC50 [8]: 93.1 µM (active)

CCN1CCN(CCOc2cccc(Oc3ccccc3)c2)CC1
IC50 [8]: 106 µM (active)

Oc1nc2ccc(Cl)cc2c(-c2ccccc2)c1SC(=S)N1CCOCC1
EC50 [6]: 0.827 µM (active) | EC50 (Streptococcus): 1.3 µM (active)

Nc1ccc2[nH]c(-c3cccnc3)nc2c1
IC50 [8]: 155 µM (active)

CCCCN(CC)CCCNC(=O)c1cn(-c2ccc(OC)cc2)c(=O)c2ccccc12
EC50 [1]: 0.496 µM (active) | EC50 [2]: > 60 µM (not active)

O=C(c1ccco1)N1CCC2(CC1)CN(c1cccc(-c3ccccc3)c1)C2
AC50 (Cytochrome P450 2C19; read-out: AC50): 3.98 µM (inconclusive)

Nc1ccc(Oc2ccccc2-c2ccccc2)cc1
EC50 [3]: 2.08 µM (active) | EC50 [4]: 9.75 µM (active) | EC50 [5]: 5.17 µM (active)

O=C(CSC(=S)N1CCCCC1)c1ccccc1
EC50 [4]: > 60 µM (not active) | EC50 [5]: 10.8 µM (active)

C/C(CCC(=O)OC[C@@H]1O[C@H](C#Cc2ccccc2)C=C[C@@H]1Oc1ccc(C)cc1)=N/OC[C@@H](O)[C@H]1O[C@H]2OC(C)(C)O[C@H]2[C@@H]1O
AC50 (Cytochrome P450 2C19; read-out: AC50): 6.31 µM (inconclusive)
